These are literature values, as cited in patent US10226421B2, “Pharmaceutical composition containing budesonide and formoterol” (Zambon S.P.A., priority 2013, dated 2019).

For the series the following is noted: phospholipids in the presence of a humidity.

`CCCCCCCCCCCCCCCC(=O)OC[C@H](COP(=O)([O-])OCC[N+](C)(C)C)OC(=O)CCCCCCCCCCCCCCC` [DPPC, dipalmitoyl-phosphatidylcholine]: the “glass-rubber transition temperatures (Tg)” value is 41 °C.

As for `CCCCCCCCCCCCCCCC(=O)OCC(COP(=O)(O)OCCN)OC(=O)CCCCCCCCCCCCCCC` (stereo not drawn) [DPPE, dipalmitoyl-phosphatidylethanolamine], the “glass-rubber transition temperatures (Tg)” value is 63 °C.

Regarding `CCCCCCCCCCCCCCCCCC(=O)OC[C@H](COP(=O)([O-])OCC[N+](C)(C)C)OC(=O)CCCCCCCCCCCCCCCCC` [DSPC, distearoyl-phosphatidylcholine], the “glass-rubber transition temperatures (Tg)” value was 55 °C.
